Earlier results in patent publication US20220257649A1, “COMBINATION THERAPIES FOR MULTIPLE MYELOMA” (NantCell, Inc., priority 2018, published 2022).
Each block holds one molecule with its values, some of them ahead of it.

How the values were obtained:
multiple myeloma = details: for rate of nearly complete response (CR): in combination with dexamethasone, induction therapy before ASCT; for rate of nearly CR: three-drug induction schedule: bortezomib-dexamethasone plus the named drug
[1] = system: primary multiple myeloma cells; details: in the presence of peripheral lymphocytes
[2] = system: relapsed or refractory multiple myeloma; details: alone, with bortezomib, or with lenalidomide and low-dose dexamethasone
IL-2Rβγ = target: T1, IL-2Rβγ (Homo sapiens, UniProt P14784+P31785); details: IL-15 mutant
T1 sequence (P14784 27-551): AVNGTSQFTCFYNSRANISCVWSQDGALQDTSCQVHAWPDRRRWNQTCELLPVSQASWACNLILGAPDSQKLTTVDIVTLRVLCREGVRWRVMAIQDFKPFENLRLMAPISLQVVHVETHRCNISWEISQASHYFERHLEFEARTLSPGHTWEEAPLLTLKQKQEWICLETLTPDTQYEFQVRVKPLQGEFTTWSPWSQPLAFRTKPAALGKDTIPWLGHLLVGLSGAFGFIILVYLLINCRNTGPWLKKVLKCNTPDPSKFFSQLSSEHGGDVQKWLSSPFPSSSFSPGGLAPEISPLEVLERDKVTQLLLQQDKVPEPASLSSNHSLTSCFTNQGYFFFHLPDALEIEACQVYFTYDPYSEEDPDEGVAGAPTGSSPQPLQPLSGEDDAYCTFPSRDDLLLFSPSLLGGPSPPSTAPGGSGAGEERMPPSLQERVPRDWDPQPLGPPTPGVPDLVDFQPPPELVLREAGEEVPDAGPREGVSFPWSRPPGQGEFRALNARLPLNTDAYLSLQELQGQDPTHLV
T1 sequence (P31785 23-369): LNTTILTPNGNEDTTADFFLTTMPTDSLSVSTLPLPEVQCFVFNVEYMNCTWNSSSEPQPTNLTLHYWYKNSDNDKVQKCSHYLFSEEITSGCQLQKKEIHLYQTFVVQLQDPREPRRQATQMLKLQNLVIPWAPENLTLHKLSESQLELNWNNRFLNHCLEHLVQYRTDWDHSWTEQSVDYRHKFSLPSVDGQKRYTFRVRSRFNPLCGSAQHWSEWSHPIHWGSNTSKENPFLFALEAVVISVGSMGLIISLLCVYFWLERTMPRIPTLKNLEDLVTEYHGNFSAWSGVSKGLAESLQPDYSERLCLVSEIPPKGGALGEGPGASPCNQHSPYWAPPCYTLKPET

[3] = following i.v. administration in mice
[4] = system: aggressive solid and hematological tumor models
IL-15 activity = details: in vitro and in vivo

Molecule: O=C1CCC(N2C(=O)c3ccccc3C2=O)C(=O)N1 (stereo not drawn) [Thalidomide]
rate of nearly complete response (CR) (multiple myeloma): 8%
rate of nearly CR (multiple myeloma): 32%

Molecule: CC(C)C[C@H](NC(=O)[C@H](Cc1ccccc1)NC(=O)c1cnccn1)B(O)O [bortezomib]
rate of nearly complete response (CR) (multiple myeloma): 16%

Molecule: O=P1(N(CCCl)CCCl)NCCCO1 (stereo not drawn) [cyclophosphamide]
rate of nearly CR (multiple myeloma): 39%

Molecule: COc1cccc2c1C(=O)c1c(O)c3c(c(O)c1C2=O)C[C@@](O)(C(=O)CO)C[C@@H]3O[C@H]1C[C@H](N)[C@H](O)[C@H](C)O1 [doxorubicin]
rate of nearly CR (multiple myeloma): 7%

Molecule: Nc1cccc2c1CN(C1CCC(=O)NC1=O)C2=O (stereo not drawn) [lenalidomide]
rate of nearly complete response (CR) (multiple myeloma): 15%
rate of nearly CR (multiple myeloma): 57%

Molecule: Elotuzumab: humanized monoclonal IgG1 antibody directed against CS-1
antibody-dependent cellular cytotoxicity (ADCC) [1]: significant antibody-dependent cellular cytotoxicity (ADCC)
activity [2]: encouraging activity
safety profile [2]: manageable safety profile

ability to bind IL-2Rβγ (IL-2Rβγ): increased ability to bind IL-2Rβγ
Molecule: IL-15N72D: IL-15 mutant with increased ability to bind IL-2Rβγ; component of N-803

Molecule: N-803: IL-15 super agonist complex: IL-15 mutant (IL-15N72D) bound to an IL-15 receptor α/IgG1 Fc fusion protein
half-life [3]: 25 h
anti-tumor activity ([4]; aggressive solid and hematological tumor models, immunocompetent mice): impressive anti-tumor activity
resistance of cured tumor-bearing mice to re-challenge with the same tumor cells ([4]; mice cured after N-803 treatment): highly resistant to re- challenge
IL-15 activity (IL-15 activity): highly potent IL-15 activity
